Data reported in article PMC10500703 (Journal of medicinal chemistry, 2021).
In brackets after ≈: the same amount, converted by molar mass. Like-named read-outs stand apart in the source and are kept apart here.

How the values were obtained:
physchem = details: pH 7
Mtb H37Rv [1] = test: microbe, parasite or virus in culture; details: Mycobacterium tuberculosis
[2] = Mouse PK, intravenous dosing; type: in vivo; details: for half-life at 24 h: in vivo, iv, 2 mg/kg; for CLb: total body clearance from whole blood
[3] = type: in vivo, mouse; details: for exposure on oral dosing: oral dosing (data not shown)
Mtb H37RvMA = type: cell-based, Mycobacterium tuberculosis
LogD = type: physicochemical
Microsomal clearance [4] = type: in vitro ADME; details: human microsomes
Microsomal clearance [5] = type: in vitro ADME; details: rat microsomes
Microsomal clearance [6] = type: in vitro ADME; details: mouse microsomes
Human plasma protein = Human plasma protein binding; type: in vitro ADME; details: fraction unbound
replicating Mtb = type: cell-based, Mycobacterium tuberculosis
non-replicating Mtb = type: cell-based, Mycobacterium tuberculosis
Mtb Erdman strain = type: cell-based, Mycobacterium tuberculosis
intracellular Mtb = type: cell-based, Mycobacterium tuberculosis; details: read-out: IC90 against intracellular Mtb
Mtb H37Rv [7] = test system: Mtb H37Rv
[8] = aqueous pH 7.4 phosphate buffer simulating thermodynamic conditions
Mtb isolate S1125 = test: microbe, parasite or virus in culture; type: cell-based; details: Mycobacterium tuberculosis

For `CS(=O)(=O)NC(=O)/C=C/c1cn(-c2ccc(Br)cc2)nc1-c1ccncc1` [Compound 39, (E)-3-(1-(4-bromophenyl)-3-(pyridin-4-yl)-1H-pyrazol-4-yl)-N-(methylsulfonyl)acrylamide], the solubility (physchem) was 185 µM (≈ 82.8 µg/mL) and the MIC (Mtb H37Rv [1]) was 1.2 to 4.7 µM (≈ 0.537 to 2.1 µg/mL).
`CS(=O)(=O)NC(=O)CCc1cn(-c2ccc(Br)cc2)nc1-c1ccc([N+](=O)[O-])cc1` [Compound 23, 3-(1-(4-bromophenyl)-3-(4-nitrophenyl)-1H-pyrazol-4-yl)-N-(methylsulfonyl)propanamide] showed an MIC (Mtb H37Rv [1]) of 12.5 µM (≈ 6.17 µg/mL).
With `CS(=O)(=O)NC(=O)NCc1cn(-c2ccc(Cl)cc2)nc1-c1ccncc1` [Compound 43, N-(((1-(4-chlorophenyl)-3-(pyridin-4-yl)-1H-pyrazol-4-yl)methyl)carbamoyl)methanesulfonamide] the half-life at 24 h [2] was 120 min and the CLb ([2]; intravenous 2 mg/kg) was > 200 mL/min/kg.
In the case of `CS(=O)(=O)NC(=O)CCc1cn(-c2ccc(F)cc2)nc1-c1ccc(Cl)cc1` [Compound 3, 3-(3-(4-chlorophenyl)-1-(4-fluorophenyl)-1H-pyrazol-4-yl)-N-(methylsulfonyl)propanamide], the MIC (Mtb H37Rv [1]) was ≥ 50 µM.
With `CS(=O)(=O)NC(=O)CCc1cc(-c2ccc(Br)cc2)nn1-c1ccc(Cl)cc1` [Compound 51, 3-(3-(4-bromophenyl)-1-(4-chlorophenyl)-1H-pyrazol-5-yl)-N-(methylsulfonyl)propanamide] the CLb ([2]; intravenous 2 mg/kg) was 3.13 mL/min/kg and the “exposure on oral dosing” value [3] was “high exposure”.
`CS(=O)(=O)NC(=O)CCc1cn(-c2ccc(Br)cc2)nc1-c1cccc(Cl)c1` [Compound 14, 3-(1-(4-bromophenyl)-3-(3-chlorophenyl)-1H-pyrazol-4-yl)-N-(methylsulfonyl)propanamide] showed an MIC (Mtb H37Rv [1]) of 2.3 µM (≈ 1.11 µg/mL).
With `CS(=O)(=O)NC(=O)NCc1cc(-c2ccc(Br)cc2)oc1-c1ccncc1` [Compound 58, N-(((5-(4-bromophenyl)-2-(pyridin-4-yl)furan-3-yl)methyl)carbamoyl)methanesulfonamide] the CLb ([2]; intravenous 2 mg/kg) was > 200 mL/min/kg.
With `CS(=O)(=O)NC(=O)/C=C/c1cn(-c2ccc(Cl)cc2)nc1-c1ccncc1` [Compound 38, (E)-3-(1-(4-chlorophenyl)-3-(pyridin-4-yl)-1H-pyrazol-4-yl)-N-(methylsulfonyl)acrylamide] the CLb ([2]; intravenous 2 mg/kg) was > 200 mL/min/kg.
With `CS(=O)(=O)NC(=O)CCc1cn(-c2ccc(Cl)cc2)nc1-c1ccncc1` [Compound 35, 3-(1-(4-chlorophenyl)-3-(pyridin-4-yl)-1H-pyrazol-4-yl)-N-(methylsulfonyl)propanamide] the MIC (Mtb H37Rv [1]) was 6.25 µM (≈ 2.53 µg/mL).
In the case of “3-(1,3-bis(4-chlorophenyl)-1H-pyrazol-5-yl)-N-(methylsulfonyl)propanamide [Compound 8]”, the MIC (Mtb H37RvMA) was 4 µM, the LogD (LogD) was 2.0 and the “Microsomal clearance % remaining, Human” value (Microsomal clearance [4]) was 98%. For the same compound, the “Microsomal clearance % remaining, Rat” value (Microsomal clearance [5]) was > 99%, the “Microsomal clearance % remaining, Mouse” value (Microsomal clearance [6]) was 87% and the “Human PPB fu” value (Human plasma protein) was 0.023. The “AUC0 – t” value ([2]; intravenous 2 mg/kg) was 4883 µmol·min/L, the Vd ([2]; intravenous 2 mg/kg) was 1.2 L/kg and the t½ terminal ([2]; intravenous 2 mg/kg) was 3.6 h. For the same compound, the CLb ([2]; intravenous 2 mg/kg) was 2.56 mL/min/kg, the “exposure on oral dosing” value [3] was “high exposure” and the bioavailability ([3]; oral dosing, even at high doses) was > 95%. For the same compound, the “log CFU reduction” value (replicating Mtb) was 2–2.5 log CFU, the “activity against non-replicating Mtb” value (non-replicating Mtb) was “not active” and the “MIC against the Mtb Erdman strain” value (Mtb Erdman strain) was 9.1 µM. It also gave an IC90 (intracellular Mtb) of 11 µM, an MIC (Mtb H37Rv [7]) of 4.7 µM and a solubility [8] of 100 µM.
With `CCS(=O)(=O)NC(=O)CCc1cn(-c2ccc(Br)cc2)nc1-c1ccc(Cl)cc1` [Compound 33, 3-(1-(4-bromophenyl)-3-(4-chlorophenyl)-1H-pyrazol-4-yl)-N-(ethylsulfonyl) propanamide] the MIC (Mtb H37Rv [1]) was 12.5 µM (≈ 6.21 µg/mL).
With `CS(=O)(=O)NC(=O)OCc1cn(-c2ccc(Cl)cc2)nc1-c1ccncc1` [Compound 45, (1-(4-chlorophenyl)-3-(pyridin-4-yl)-1H-pyrazol-4-yl)methyl (methylsulfonyl)carbamate] the CLb ([2]; intravenous 2 mg/kg) was > 200 mL/min/kg and the MIC (Mtb H37Rv [1]) was 12.5 µM (≈ 5.09 µg/mL).
Compound `CS(=O)(=O)NC(=O)CCc1cn(-c2ccc(Br)cc2)nc1C1CCOCC1` [Compound 20, 3-(1-(4-bromophenyl)-3-(tetrahydro-2H-pyran-4-yl)-1H-pyrazol-4-yl)-N-(methylsulfonyl)propanamide] has a CLb ([2]; intravenous 2 mg/kg) of 145 mL/min/kg.
In the case of `CS(=O)(=O)NC(=O)CCc1cn(-c2ccc(Br)cc2)nc1C1CCN(C=O)CC1` [Compound 22, 3-(1-(4-bromophenyl)-3-(1-formylpiperidin-4-yl)-1H-pyrazol-4-yl)-N-(methylsulfonyl)propanamide], the MIC (Mtb H37Rv [1]) was ≥ 50 µM.
`CS(=O)(=O)NC(=O)CCc1cn(-c2ccc(C(F)(F)F)nc2)nc1-c1ccc(Cl)cc1` [Compound 10, 3-(3-(4-chlorophenyl)-1-(6-(trifluoromethyl)pyridin-3-yl)-1H-pyrazol-4-yl)-N-(methylsulfonyl)propanamide] showed a CLb ([2]; intravenous 2 mg/kg) of 67.4 mL/min/kg.
Work on `CS(=O)(=O)NC(=O)CCc1cn(-c2ccc(Br)cc2)nc1-c1cccnc1` [Compound 17, 3-(1-(4-bromophenyl)-3-(pyridin-3-yl)-1H-pyrazol-4-yl)-N-(methylsulfonyl)propanamide] yielded a CLb ([2]; intravenous 2 mg/kg) of 178 mL/min/kg.
In the case of `CS(=O)(=O)NC(=O)CCc1nn(-c2ccc(Br)cc2)cc1-c1ccc(Cl)cc1` [Compound 53, 3-(1-(4-bromophenyl)-4-(4-chlorophenyl)-1H-pyrazol-3-yl)-N-(methylsulfonyl)propanamide], the MIC (Mtb H37Rv [1]) was ≥ 50 µM.
With `CS(=O)(=O)NC(=O)CCc1cn(-c2ccc(Br)cc2)nc1-c1ccncc1` [Compound 16, 3-(1-(4-bromophenyl)-3-(pyridin-4-yl)-1H-pyrazol-4-yl)-N-(methylsulfonyl)propanamide] the MIC (Mtb isolate S1125) was 15 to 30 µM (≈ 6.74 to 13.5 µg/mL), the CLb ([2]; intravenous 2 mg/kg) was > 200 mL/min/kg and the “log CFU reduction” value (replicating Mtb) was 2–2.5 log CFU. For the same compound, the “activity against non-replicating Mtb” value (non-replicating Mtb) was “not active”.
With `CS(=O)(=O)NC(=O)CCc1cn(-c2ccc(Br)cc2)nc1-c1ccc(Cl)cc1` [Compound 1, 3-(1-(4-bromophenyl)-3-(4-chlorophenyl)-1H-pyrazol-4-yl)-N-(methylsulfonyl)propanamide] the half-life at 24 h [2] was 120 min, the CLb ([2]; intravenous 2 mg/kg) was 1.18 mL/min/kg and the “exposure on oral dosing” value [3] was “high exposure”. For the same compound, the “log CFU reduction” value (replicating Mtb) was 2–2.5 log CFU and the “activity against non-replicating Mtb” value (non-replicating Mtb) was “not active”.
In the case of `CS(=O)(=O)NC(=O)C1CC1c1cn(-c2ccc(Br)cc2)nc1-c1ccncc1` (stereo not shown) [Compound 41, 2-(1-(4-bromophenyl)-3-(pyridin-4-yl)-1H-pyrazol-4-yl)-N-(methylsulfonyl)cyclopropane-1-carboxamide], the MIC (Mtb H37Rv [1]) was 12.5 to 19 µM (≈ 5.77 to 8.77 µg/mL).
In the case of `CS(=O)(=O)NC(=O)C1CC1c1cn(-c2ccc(Cl)cc2)nc1-c1ccncc1` (stereo not shown) [Compound 40, 2-(1-(4-chlorophenyl)-3-(pyridin-4-yl)-1H-pyrazol-4-yl)-N-(methylsulfonyl)cyclopropane-1-carboxamide], the CLb ([2]; intravenous 2 mg/kg) was > 200 mL/min/kg and the MIC (Mtb H37Rv [1]) was 12.5 to 19 µM (≈ 5.21 to 7.92 µg/mL).
In the case of `CC(CC(=O)NS(C)(=O)=O)c1cn(-c2ccc(Cl)cc2)nc1-c1ccncc1` (stereo not shown) [Compound 37, 3-(1-(4-chlorophenyl)-3-(pyridin-4-yl)-1H-pyrazol-4-yl)-N-(methylsulfonyl)butanamide], the MIC (Mtb H37Rv [1]) was ≥ 50 µM.
For `O=c1[nH]c(CCc2cn(-c3ccc(Br)cc3)nc2-c2ccc(Cl)cc2)no1` [Compound 47, 3-(2-(1-(4-bromophenyl)-3-(4-chlorophenyl)-1H-pyrazol-4-yl)ethyl)-1,2,4-oxadiazol-5(4H)-one], the MIC (Mtb H37Rv [1]; 336 h) was ≥ 50 µM.
